Source: patent US12448369B2 (Edgewise Therapeutics, Inc., priority 2023, dated 2025)

Assays:
[1] = biological target: T1, Porcine ventricle myofibrils (ventricular myosin ATPase) (Sus scrofa, UniProt P79293); assay: Myofibril ATPase assay, porcine ventricle myofibrils; format: biochemical, porcine (Yucatan minipigs)
T1 construct: Myofibrils from porcine cardiac muscle was isolated from the left ventricle of Yucatan minipigs; tissue Exemplar Genetics; host or cells: left ventricle of Yucatan minipigs, myofibrils prepared in house
T1 sequence (P79293 whole entry): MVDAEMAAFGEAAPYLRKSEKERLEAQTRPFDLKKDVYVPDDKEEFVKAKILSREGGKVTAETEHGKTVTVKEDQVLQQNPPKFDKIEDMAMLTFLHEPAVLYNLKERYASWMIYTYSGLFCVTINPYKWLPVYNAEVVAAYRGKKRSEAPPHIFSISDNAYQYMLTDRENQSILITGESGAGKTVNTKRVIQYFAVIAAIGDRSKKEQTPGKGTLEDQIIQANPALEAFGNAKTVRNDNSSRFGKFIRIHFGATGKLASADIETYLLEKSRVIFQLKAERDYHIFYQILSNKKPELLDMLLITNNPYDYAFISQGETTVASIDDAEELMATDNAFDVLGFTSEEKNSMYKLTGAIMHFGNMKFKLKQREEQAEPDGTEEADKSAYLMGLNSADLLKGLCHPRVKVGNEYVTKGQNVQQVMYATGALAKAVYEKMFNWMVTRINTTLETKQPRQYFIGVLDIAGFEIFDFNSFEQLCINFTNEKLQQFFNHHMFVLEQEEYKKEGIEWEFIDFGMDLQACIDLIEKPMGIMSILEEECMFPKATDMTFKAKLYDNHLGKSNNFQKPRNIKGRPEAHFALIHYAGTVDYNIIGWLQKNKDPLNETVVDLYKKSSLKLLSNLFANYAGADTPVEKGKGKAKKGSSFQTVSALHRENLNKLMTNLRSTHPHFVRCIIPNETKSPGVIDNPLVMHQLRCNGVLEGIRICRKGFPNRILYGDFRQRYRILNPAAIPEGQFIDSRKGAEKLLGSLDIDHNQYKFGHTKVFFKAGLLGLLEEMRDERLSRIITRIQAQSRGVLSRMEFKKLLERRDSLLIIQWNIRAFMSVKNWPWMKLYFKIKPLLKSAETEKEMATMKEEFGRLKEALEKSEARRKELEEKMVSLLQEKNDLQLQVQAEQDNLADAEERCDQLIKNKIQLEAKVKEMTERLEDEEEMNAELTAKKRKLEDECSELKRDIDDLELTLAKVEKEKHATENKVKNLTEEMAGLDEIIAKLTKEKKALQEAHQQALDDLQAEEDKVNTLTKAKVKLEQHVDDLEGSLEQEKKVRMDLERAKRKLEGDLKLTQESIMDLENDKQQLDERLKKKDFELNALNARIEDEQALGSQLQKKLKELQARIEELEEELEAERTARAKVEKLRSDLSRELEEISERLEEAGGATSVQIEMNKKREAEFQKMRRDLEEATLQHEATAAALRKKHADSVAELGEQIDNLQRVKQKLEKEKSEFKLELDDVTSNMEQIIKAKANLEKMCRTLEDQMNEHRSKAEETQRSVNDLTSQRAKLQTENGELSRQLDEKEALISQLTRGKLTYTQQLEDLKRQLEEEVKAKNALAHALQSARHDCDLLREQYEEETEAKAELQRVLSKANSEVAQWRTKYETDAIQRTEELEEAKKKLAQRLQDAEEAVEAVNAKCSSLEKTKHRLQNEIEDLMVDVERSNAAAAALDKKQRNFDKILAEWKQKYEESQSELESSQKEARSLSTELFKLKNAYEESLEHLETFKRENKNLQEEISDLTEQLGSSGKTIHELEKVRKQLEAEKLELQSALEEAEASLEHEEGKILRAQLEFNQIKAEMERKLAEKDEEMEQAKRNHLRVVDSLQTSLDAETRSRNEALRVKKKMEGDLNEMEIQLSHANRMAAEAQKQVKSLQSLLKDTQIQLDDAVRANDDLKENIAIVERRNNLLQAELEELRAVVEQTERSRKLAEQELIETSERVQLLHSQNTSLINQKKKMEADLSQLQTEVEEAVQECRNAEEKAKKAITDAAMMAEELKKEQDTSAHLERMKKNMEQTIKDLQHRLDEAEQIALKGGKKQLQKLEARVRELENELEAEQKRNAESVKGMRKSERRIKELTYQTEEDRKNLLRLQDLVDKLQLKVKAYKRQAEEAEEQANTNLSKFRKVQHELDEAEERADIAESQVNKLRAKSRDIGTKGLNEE
Description: (§1) Example 1. Myofibril ATPase Assay
(§2) Myofibril ATPase assays are known in the art to be useful in evaluating small molecules for the treatment of HCM and other cardiac indications. Myosin ATPase activity is assessed by using a coupled reaction system, in which ADP generated by the myosin ATPase function is coupled to the disappearance of NADH through the pyruvate kinase/lactate dehydrogenase (PK-LDH) system. ATPase activity produces ADP, which is used as a substrate for PK to produce pyruvate and regenerate ATP. The pyruvate is then used as a substrate by LDH to oxidize NADH to NAD+. The rate of the reaction is monitored through the time-dependent disappearance of NADH using absorbance at 340 nm, which, when the couple system is in stoichiometric excess, is directly correlated to the ATPase activity of the myosin. Inhibition of ATPase activity by the assayed compounds is indicated by a reduced rate of NADH loss, relative to vehicle-treated controls, over the experimental time window. Activation of ATPase activity by the assayed compounds is indicated by an increased rate of NADH loss, relative to vehicle-treated controls, over the experimental time window. Rabbit Psoas, Porcine atria, and Porcine ventricle are the primary sources of myofibril material.
(§3) Materials: The following stock solutions and reagents were used in the Myofibril ATPase Assay:
(§4) Stock Solutions of pCa buffer. Combine PIPES, CaCl2, and EGTA solutions with water. Adjust pH to 7.0 and bring final volume to 100 mL.
(§5) Buffer A & Buffer B. Prepare buffers A and B according to the table below.
(§6) Myofibril ATPase Assay Procedure: BSA, ATP, NADH, PEP, and DTT solutions were thawed at room temperature, then transferred to ice. Pellet-frozen myofibrils were transferred with approximately twice the required volume into a sufficiently large tube and capped. Myofibrils were thawed by rolling in a water bath for approximately 15 min at room temperature and cooled on ice. Buffers A and B were prepared by adjusting volumes as necessary for required number of wells and stored on ice. 0.5 μL of the compounds to be assayed were added into wells. 25 μL of Buffer A was dispensed into the wells, followed by 25 μL of Buffer B. The wells were measured for absorbance at 340 nm, using a kinetic protocol in which the wells are read every 1.5-2 min for 75 min. Assay data analysis was performed using a python script that filtered the raw data to retain those points falling between a starting and ending time and between a maximum and minimum absorbance, then used the filtered time-domain 340 nm absorbance data in each well to calculate a slope via linear regression analysis in units of mAU/min. Compound slopes were normalized between 100% and 0% activity, where 100% represented the slope of wells containing only compound vehicle, and fit to a 4-parameter logistic model. In addition to the fit parameters, the EC25% values were calculated, relative to the 100% normalized value. Additionally, the Y125 values were calculated for compounds that increased myosin ATP-ase activity. Fit parameters, calculated effective concentrations, filtered raw data, and calculated slopes were exported, in addition to compound-specific graphs of normalized ATPase activity versus concentration in μM. Each value reported in Table 5, Table 6, and Table 7 is either a Y75 value or a Y125 value. Values without a double cross sign, ‡, are Y75 values, which reflect the concentration required to reduce myosin ATP-ase activity by 25% (e.g., Y-axis activity value is 75% of initial value), relative to myosin ATP-ase activity in the absence of exogenous compound.
Cardiac Myofibril Isolation:
Myofibrils from porcine cardiac muscle was isolated from the left ventricle of Yucatan minipigs. Myofibrils were prepared using a method based upon those described in Herrmann et al. (1993) and summarized here. […]

[2] = system: Porcine atria myofibrils (atrial myosin ATPase); assay: Myofibril ATPase assay, porcine atria myofibrils; format: biochemical
Description: as §1, §2, §3, §4, §5, §6
(§7) Myofibrils from various animals and tissue types were acquired from a variety of sources: rabbit psoas muscle was purchased from Pel-Freez Biologicals (Rogers, AR) and porcine cardiac muscle was purchased from Exemplar Genetics. All myofibrils were prepared using a method based upon those described in Herrmann et al. (1993) and summarized here. […]

[3] = system: Rabbit Psoas myofibrils (skeletal myosin ATPase); assay: Myofibril ATPase assay, rabbit psoas (skeletal) myofibrils; format: biochemical
Description: as §1, §2, §3, §4, §5, §6
Skeletal Myofibril Isolation:
as §7

[4] = Y75 value (no ‡ mark), porcine ventricle myofibrils
[5] = Y75 value (no ‡ mark), porcine atria myofibrils
[6] = Y75 value (no ‡ mark), rabbit psoas myofibrils
[7] = porcine ventricle myofibrils, Y75 value
[8] = porcine atria myofibrils, Y75 value (75% activity relative to no compound)
[9] = rabbit psoas myofibrils, Y75 value

Compound | Ventricular EC25 [1, 4] [µM] | Atrial EC25 [2, 5] [nM] | Skeletal EC25 [3, 6] [µM] | Ventricular EC25 [1, 7] [µM] | Atrial EC25 [2, 8] [nM] | Skeletal EC25 [3, 9] [µM] | other results
Cc1c(CC(=O)N[C@@H]2CCc3cc(C#N)cnc32)c(=O)[nH]c2ccc(F)cc12 [compound 1092] | 2.41 | 1130 | 0.36 | – | – | – | –
C[C@H](NC(=O)C1(c2cc3c(F)c(F)ccc3[nH]c2=O)CC1)c1ncc(C#N)cc1F (single isomer, unassigned) [compound 2593] | 1.00 | 190 | 1.15 | – | – | – | –
Cc1c(C(F)(F)C(=O)N[C@@H](C)c2ncc(C#N)cc2F)c(=O)[nH]c2cccc(C#N)c12 (single isomer, unassigned) [compound 2502] | 0.20 | 90 | 0.03 | – | – | – | –
Cc1c(C2(C(=O)N[C@@H](C)c3nccc(C#N)n3)CC2)c(=O)[nH]c2ccc(F)c(F)c12 (single isomer, unassigned) [compound 2510] | – | 7780 | – | – | – | – | Ventricular EC25 ([1]; ‡ Y125 value, not a Y75 value (125% activity relative to no compound), porcine ventricle myofibrils): 77.57‡ μM; Skeletal EC25 ([3]; ‡ Y125 value, not a Y75 value (125% activity relative to no compound), rabbit psoas myofibrils): 85.63‡ μM
C[C@@H](NC(=O)C1(c2cc3c(F)c(F)ccc3[nH]c2=O)CC1)c1cc(C#N)ccn1 (single isomer, unassigned) [compound 2583] | 100.00 | 4310 | 100.00 | – | – | – | –
N#Cc1cnc2c(c1)OC[C@@H]2NC(=O)Cc1cc2c(F)c(F)ccc2[nH]c1=O (single isomer, unassigned) [compound 14] | 0.34 | 210 | 0.07 | – | – | – | –
Cc1nccc2[nH]c(=O)c(C(F)(F)C(=O)N[C@H](C)c3ccc(C#N)cc3F)c(C)c12 (single isomer, unassigned) [compound 3511] | – | – | – | 2.65 | 560 | 0.26 | –
Cc1nccc2[nH]c(=O)c(CC(=O)N[C@H](C)c3ccc(O)nc3)c(C)c12 (single isomer, unassigned) [compound 295] | – | – | – | 100.00 | 100000 | 100.00 | –
Cc1c(CC(=O)N[C@H](CO)c2ccc(C#N)cc2F)c(=O)[nH]c2cnnc(C#N)c12 [compound 175] | – | – | – | 100.00 | 100000 | 100.00 | –
N#Cc1cnc2c(c1)CC[C@@H]2NC(=O)C1(c2cc3c(F)c(F)ccc3[nH]c2=O)CC1 (single isomer, unassigned) [compound 4824] | 100.00 | 100000 | 8.80 | – | – | – | –
Cc1c(CC(=O)N[C@H](C)c2ncc(C#N)cn2)c(=O)[nH]c2ccc(C#N)cc12 (single isomer, unassigned) [compound 2027] | 100.00 | 1480 | 41.80 | – | – | – | –
Cc1nccc2[nH]c(=O)c(CC(=O)Nc3c[nH]c4cc(F)cc(F)c34)c(C)c12 [compound 228] | – | – | – | 100.00 | 100000 | 100.00 | –
Cc1c(C(F)(F)C(=O)N[C@H](C)c2ncc(C#N)cc2F)c(=O)[nH]c2ccnc(C#N)c12 (single isomer, unassigned) [compound 3510] | – | – | – | 1.30 | 440 | 0.16 | –
Cc1c(CC(=O)NC(C)c2cc(C#N)c(F)s2)c(=O)[nH]c2ccc(F)c(F)c12 (stereo not drawn) [compound 4001] | – | – | – | – | – | – | Ventricular EC25 ([1]; Y75 value: concentration required to reduce myosin ATP-ase activity by 25%, Porcine Ventricle Prep pCa 25 GEOM_MEAN): 0.58 µM; Atrial EC25 ([2]; Y75 value: concentration required to reduce myosin ATP-ase activity by 25%, Porcine Atria Prep pCa 25 GEOM_MEAN): 260 nM; Skeletal EC25 ([3]; Y75 value: concentration required to reduce myosin ATP-ase activity by 25%, Rabbit Psoas Prep pCa 25 GEOM_MEAN): 0.16 µM

More lines, main results first:

Ventricular EC25 [1, 4] [µM] | Atrial EC25 [2, 5] [nM] | Skeletal EC25 [3, 6] [µM] | Ventricular EC25 [1, 7] [µM] | Atrial EC25 [2, 8] [nM] | Skeletal EC25 [3, 9] [µM] | Compound | other results
0.13 | 40 | 0.02 | – | – | – | Cc1c(CC(=O)N[C@@H](C)c2ccc(F)cc2F)c(=O)[nH]c2ccc(F)c(F)c12 [compound 116] | –
2.86 | 890 | 0.66 | – | – | – | COc1ccc2[nH]c(=O)c(CC(=O)N[C@@H](C)c3ccc(F)cc3F)c(C)c2c1C#N [compound 1153] | –
0.94 | 650 | 0.27 | – | – | – | Cc1c(CC(=O)N[C@H](C)c2ccc(C#N)nn2)c(=O)[nH]c2ccc(F)c(C3CC3)c12 (single isomer, unassigned) [compound 2057] | –
0.11 | 30 | 0.01 | – | – | – | Cc1c(CC(=O)N[C@H](C)c2ccc(C#N)cc2F)c(=O)[nH]c2ccc(F)c(C3CC3)c12 [compound 69] | –
– | – | – | 1.48 | 140 | 0.04 | Cc1c([C@H](C)C(=O)N[C@@H](C)c2ccc(F)cc2F)c(=O)[nH]c2ccnc(Cl)c12 (single isomer, unassigned) [compound 366] | –
– | – | – | 5.52 | 270 | 0.34 | Cc1c(CC(=O)N[C@@H](C)c2ccc(F)cc2F)c(=O)[nH]c2ccc(C#N)nc12 [compound 281] | –
– | – | – | 1.16 | 1550 | 0.35 | Cc1c(CC(=O)N[C@H](C)c2ccc(C#N)cc2F)c(=O)[nH]c2ccnc(C#N)c12 (single isomer, unassigned) [compound 282] | –
1.40 | 6130 | 0.21 | – | – | – | C[C@H](NC(=O)Cc1c(C2CC2)c2c(F)c(F)ccc2[nH]c1=O)c1ccc(C#N)cn1 [compound 26] | –
– | – | – | 0.42 | 2460 | 0.02 | Cc1c(CC(=O)N[C@@H](C)c2ccc(F)cc2F)c(=O)[nH]c2ccc(C(F)(F)F)nc12 [compound 393] | –
0.05 | 50 | 0.04 | – | – | – | Cc1c(F)ccc2[nH]c(=O)c(CC(=O)N[C@@H](C)c3ncc(C#N)cc3F)c(C#N)c12 [compound 1150] | –
– | – | – | 100.00 | 790 | 10.51 | Cc1c(CC(=O)N[C@@H](C)c2cnc(C#N)nc2)c(=O)[nH]c2ccc(C(F)(F)F)nc12 [compound 458] | –
– | – | – | 100.00 | 11750 | 5.05 | Cc1ccc([C@H](C)NC(=O)Cc2c(C)c3c(C)nccc3[nH]c2=O)cc1 (single isomer, unassigned) [compound 306] | –
– | – | – | 0.31 | 60 | 0.06 | Cc1c(CC(=O)N[C@@H](C)c2ccc(F)cc2F)c(=O)[nH]c2ccc(Br)nc12 [compound 357] | –
– | – | – | 0.31 | 100 | 0.01 | CCOc1nccc2[nH]c(=O)c(CC(=O)N[C@@H](C)c3ccc(F)cc3F)c(C)c12 [compound 381] | –
– | – | – | 100.00 | 100000 | 12.92 | C[C@H](NC(=O)Cc1cc2c(OCC(F)(F)F)nccc2[nH]c1=O)c1ccc(F)cc1F [compound 436] | –
